This is an account of results in EP4678638A1, “NEW E3 UBIQUITIN LIGASE LIGAND, PROTEIN DEGRADATION AGENT AND USE THEREOF” (priority 2023, dated 2024).

Experiment [1] relates to THP-1. Kind of experiment: CCK-8 proliferation, THP-1. In kind it is cell-based. The note with it: Homo sapiens, 72 hours, read-out: Inhibitory activity (IC50) on tumor cell proliferation, THP-1. As for the experimental part:
(§1) The tumor cells used herein were cultured in a cell culture medium listed in table A1 at 37°C in an incubator with 5% CO2. Prior to experimentation, all cell lines used were correctly identified by STR profiling, and tested negative for mycoplasma contamination using a mycoplasma detection kit through routine screenings. Table A1. Tumor cells and cell culture medium used in the present disclosure
(§2) IC50 values of the compounds of the present disclosure (including the compounds in Table 1, and compounds of examples) were measured using the Meilun Cell Counting Kit-8 kit from Dalian Meilun Biotech Co., Ltd. Assay details are as follows: tumor cells were seeded in a 96-well plate at a density listed in Table A2. After 24h, 100 µL of the inoculated cells were treated with 0.5µL of the compounds of the present disclosure (including the compounds in Tables 1 and 2, and compounds of examples) at 10 different successively decreasing concentrations (starting at the highest concentration of 10µM; 5-fold serial dilutions). After the cells were treated with the compounds of the present disclosure for a period of time, the cell viability detection reagent was added to the culture medium for cell viability assessment according to the instructions provided with the CCK-8 kit. […] The growth inhibition of the compounds of the present disclosure on cells was plotted by Prism Graphpad software, and the IC50 values of the compounds of the present disclosure were calculated therefrom. […] Seeding protocol and treatment time for tumor cells

Experiment [2] deals with LNcap. Kind of experiment: CCK-8 proliferation, LNcap. In kind it is cell-based. To be noted: Homo sapiens, LNCaP; CCK-8; 96 hours; read-out: Inhibitory activity (IC50) on tumor cell proliferation, Lncap. The gist of the method:
(§3)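 Cells seeded, then after 24 h treated with 10 concentrations (top 10 µM, 5-fold serial dilution) for a line-specific time at 37°C, 5% CO2. Viability read by CCK-8; IC50 fitted from growth-inhibition curves.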

Experiment [3] concerns CCRF-CEM. In words: CCK-8 proliferation, CCRF-CEM. In kind it is cell-based, Human. To be noted: Homo sapiens, CCRF-CEM; CCK-8; 96 hours; read-out: Inhibitory activity (IC50) on tumor cell proliferation, CCRF-CEM. The gist of the method: as §3
In experiment [4] the test system is TMD8. In words: CCK-8 proliferation, TMD8. In kind it is cell-based. To be noted: Homo sapiens, TMD8; CCK-8; 72 hours; read-out: Inhibitory activity (IC50) on tumor cell proliferation, TMD8. Here is the method:
as §1, §2

Experiment [5] concerns Jurkat. In words: CCK-8 proliferation, Jurkat. To be noted: Homo sapiens, Jurkat; CCK-8; 96 hours; read-out: Inhibitory activity (IC50) on tumor cell proliferation, Jurkat. In kind it is cell-based, Human. In outline:
as §3

Experiment [6] concerns SW620. Kind of experiment: CCK-8 proliferation, SW620. In kind it is cell-based. The note with it: Homo sapiens, SW-620; CCK-8; 96 hours; read-out: Inhibitory activity (IC50) on tumor cell proliferation, SW620. The gist of the method:
as §3

The test system of experiment [7] is LS174T. In words: CCK-8 proliferation, LS174T. The note with it: Homo sapiens, read-out: Inhibitory activity (IC50) on tumor cell proliferation, LS174T. In kind it is cell-based. Here is the method:
IC50 values of the compounds of the present disclosure (including the compounds in Table 1, and compounds of examples) were measured using the Meilun Cell Counting Kit-8 kit from Dalian Meilun Biotech Co., Ltd. Assay details are as follows: tumor cells were seeded in a 96-well plate at a density listed in Table A2. After 24h, 100 µL of the inoculated cells were treated with 0.5µL of the compounds of the present disclosure (including the compounds in Tables 1 and 2, and compounds of examples) at 10 different successively decreasing concentrations (starting at the highest concentration of 10µM; 5-fold serial dilutions). After the cells were treated with the compounds of the present disclosure for a period of time, the cell viability detection reagent was added to the culture medium for cell viability assessment according to the instructions provided with the CCK-8 kit. […] The growth inhibition of the compounds of the present disclosure on cells was plotted by Prism Graphpad software, and the IC50 values of the compounds of the present disclosure were calculated therefrom. [drawing 1519] Table A2. Seeding protocol and treatment time for tumor cells

In experiment [8] the test system is SR. Kind of experiment: CCK-8 proliferation, SR. In kind it is cell-based, Human. To be noted: Homo sapiens, SR; CCK-8; 72 hours; read-out: Inhibitory activity (IC50) on tumor cell proliferation, SR. In outline: as §3
Experiment [9] deals with T1, FAK (Homo sapiens, UniProt Q05397).
T1 construct: evaluate the effects of the compounds of the present disclosure on the expression of target proteins in cells; endogenous in cells
T1 sequence (Q05397 whole entry, species assumed): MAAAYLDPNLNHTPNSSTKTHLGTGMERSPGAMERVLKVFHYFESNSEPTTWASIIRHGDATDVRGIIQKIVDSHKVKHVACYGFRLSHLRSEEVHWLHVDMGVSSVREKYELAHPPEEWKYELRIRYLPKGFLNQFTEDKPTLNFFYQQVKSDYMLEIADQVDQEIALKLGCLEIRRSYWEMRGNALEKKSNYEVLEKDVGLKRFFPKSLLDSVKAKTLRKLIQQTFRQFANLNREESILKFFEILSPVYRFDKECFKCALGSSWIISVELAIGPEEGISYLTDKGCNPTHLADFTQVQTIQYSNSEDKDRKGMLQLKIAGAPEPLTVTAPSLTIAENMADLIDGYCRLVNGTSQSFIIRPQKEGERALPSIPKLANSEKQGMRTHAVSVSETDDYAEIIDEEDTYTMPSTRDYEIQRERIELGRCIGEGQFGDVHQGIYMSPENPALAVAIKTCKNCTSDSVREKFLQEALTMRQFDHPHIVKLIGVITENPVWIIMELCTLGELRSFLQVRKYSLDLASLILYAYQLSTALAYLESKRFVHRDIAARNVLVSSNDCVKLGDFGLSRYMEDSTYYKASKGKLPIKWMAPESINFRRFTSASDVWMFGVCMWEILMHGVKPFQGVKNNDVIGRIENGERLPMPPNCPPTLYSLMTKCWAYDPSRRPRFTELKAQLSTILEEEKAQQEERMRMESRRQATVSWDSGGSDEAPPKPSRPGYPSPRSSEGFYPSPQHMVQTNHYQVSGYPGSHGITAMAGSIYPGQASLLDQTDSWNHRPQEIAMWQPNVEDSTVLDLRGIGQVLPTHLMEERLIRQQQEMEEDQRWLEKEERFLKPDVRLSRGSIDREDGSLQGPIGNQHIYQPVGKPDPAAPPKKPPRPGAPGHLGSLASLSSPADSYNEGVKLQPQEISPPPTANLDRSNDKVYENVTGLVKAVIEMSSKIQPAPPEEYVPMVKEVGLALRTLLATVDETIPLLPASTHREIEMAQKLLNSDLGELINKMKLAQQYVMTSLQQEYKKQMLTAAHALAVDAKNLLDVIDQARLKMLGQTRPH
Kind of experiment: Western blot degradation of FAK. In kind it is cell-based. The note with it: Table D7. The gist of the method: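 Quantification by ImageJ densitometry of Western blot bands: DC50 is the fitted concentration halving band intensity relative to DMSO. Percent remaining uses internal-control normalization, and degradation rate is its complement.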
A general note: A western blot detects proteins with antibodies after separation by electrophoresis.

Experiment [10] has as its system CAL-62. In words: CCK-8 proliferation, CAL-62. In kind it is cell-based. The note with it: Homo sapiens, 72 hours, read-out: Inhibitory activity (IC50) on tumor cell proliferation, CAL-62. Here is the method:
as §1, §2

Experiment [11] concerns MM.1R. In words: CCK-8 proliferation, MM.1R. In kind it is cell-based. To be noted: CCK-8, 72 hours, read-out: Inhibitory activity (IC50) on tumor cell proliferation, MM.1R. In outline: as §3
The subject of experiment [12] is H1975. Kind of experiment: CCK-8 proliferation, NCI-H1975 (H1975). In kind it is cell-based, Human. To be noted: Homo sapiens, NCI-H1975; CCK-8; 96 hours; read-out: Inhibitory activity (IC50) on tumor cell proliferation, H1975. The gist of the method:
as §3

The test system of experiment [13] is MV-4-11. In words: CCK-8 proliferation, MV-4-11. In kind it is cell-based, Human. The note with it: Homo sapiens, MV4-11; CCK-8; 72 or 96 hours; read-out: Inhibitory activity (IC50) on tumor cell proliferation, MV-4-11. The gist of the method:
as §3

Experiment [14] deals with T2, human Cereblon WT GST-tagged protein (Homo sapiens, UniProt Q96SW2).
T2 construct: purchased CISBIO 64BDCRBNPEH
T2 sequence (Q96SW2 whole entry): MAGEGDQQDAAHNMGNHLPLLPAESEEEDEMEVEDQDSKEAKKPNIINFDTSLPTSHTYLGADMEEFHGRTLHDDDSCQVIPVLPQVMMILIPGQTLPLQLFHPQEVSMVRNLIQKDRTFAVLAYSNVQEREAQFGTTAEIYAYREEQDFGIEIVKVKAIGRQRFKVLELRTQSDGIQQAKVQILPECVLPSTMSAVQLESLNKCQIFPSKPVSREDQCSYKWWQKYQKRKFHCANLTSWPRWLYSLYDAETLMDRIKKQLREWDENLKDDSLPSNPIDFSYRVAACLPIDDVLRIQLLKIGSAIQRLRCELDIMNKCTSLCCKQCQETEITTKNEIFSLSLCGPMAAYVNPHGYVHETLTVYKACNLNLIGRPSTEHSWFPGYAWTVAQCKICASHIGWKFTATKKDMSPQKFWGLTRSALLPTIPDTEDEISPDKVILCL
In words: CRBN binding, HTRF (CEREBLON BINDING kit). The note with it: Table II-2, CRBN binding screening, HTRF. The gist of the method: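 Competitive HTRF: GST-tagged human WT Cereblon mixed with compound, Thalidomide-Re tracer and GST Eu antibody, incubated 3 h at room temperature. Signals read at 620 and 665 nm.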

Some results are limits rather than exact numbers.

For the compound `CC1(C)CCC(c2ccc(Cl)cc2)=C(CN2CCN(c3ccc(C(=O)NS(=O)(=O)c4ccc(N[C@H](CCN5CCOCC5)CSc5ccccc5)c(S(=O)(=O)C(F)(F)F)c4)cc3)CC2)C1` [ABT-263, Navitoclax, reference compound], the IC50 lay in the range of 100 to 500 nM in experiment [1]; 1000 to 5000 nM in [2]; 100 to 500 nM in [3]; 1000 to 5000 nM in [4]; 100 to 500 nM in [5]; 500 to 1000 nM in experiment [6]. Also, in [7], the IC50 lay in the range of 500 to 1000 nM.
Regarding `CNC(=O)c1ccccc1Nc1cc(Nc2ccc(N3CCC(N4CCN(Cc5ccc(C6CCC(=O)NC6=O)c(F)c5)CC4)CC3)cc2OC)ncc1C(F)(F)F` (stereo not shown) [GT-03600, 2-((2-((4-(4-(4-(4-(2,6-dioxopiperidin-3-yl)-3-fluorobenzyl)piperazin-1-yl)piperidin-1-yl)-2-methoxyphenyl)amino)-5-(trifluoromethyl)pyridin-4-yl)amino)-N-methylbenzamide], the IC50 lay within 50 to 100 nM in experiment [8]; 100 to 500 nM in experiment [10]; 500 to 1000 nM in experiment [3]; 500 to 1000 nM in experiment [11]; 50 to 100 nM in experiment [6]; 500 to 1000 nM in [12]. The “Degradation of substrate protein FAK (substrate protein remaining %)” value (from here on “Degradation … (substrate protein remaining %)”) in [9] is recorded as “A (A is defined as 0% ≤ substrate protein remaining % ≤ 80%)”.
Take `CC1(C)CCC(c2ccc(Cl)cc2)=C(CN2CCN(c3ccc(C(=O)NS(=O)(=O)c4ccc(N[C@H](CCN5CCN(Cc6ccc(C7CCC(=O)NC7=O)cc6)CC5)CSc5ccccc5)c(S(=O)(=O)C(F)(F)F)c4)cc3)CC2)C1` (stereo partly drawn) [GT-04151, 4-(4-((4'-chloro-4,4-dimethyl-3,4,5,6-tetrahydro-[1,1'-biphenyl]-2-yl)methyl)piperazin-1-yl)-N-((4-(((2R)-4-(4-(4-(2,6-dioxopiperidin-3-yl)benzyl)piperazin-1-yl)-1-(phenylthio)butan-2-yl)amino)-3-((trifluoromethyl)sulfonyl)phenyl)sulfonyl)benzamide]: the IC50 in [1] was 1 to 10 nM; in experiment [2], 10 to 50 nM; in experiment [3], less than 1 nM; in experiment [4], 1 to 10 nM; in [5], 1 to 10 nM; in [6] it was 10 to 50 nM. Also, the IC50 in experiment [7] was in the range of 50 to 100 nM.
In general, inhibition refers to the percentage by which the read-out fell short of the control. Consider `CNC(=O)c1ccccc1Nc1cc(Nc2ccc(N3CCC(N(C)Cc4ccc(C5CCC(=O)NC5=O)cc4)CC3)cc2OC)ncc1C(F)(F)F` (stereo not shown) [GT-03733, 2-((2-((4-(4-((4-(2,6-dioxopiperidin-3-yl)benzyl)(methyl)amino)piperidin-1-yl)-2-methoxyphenyl)amino)-5-(trifluoromethyl)pyridin-4-yl)amino)-N-methylbenzamide], for which the IC50 was 50 to 100 nM in experiment [8]; 50 to 100 nM in experiment [10]; 100 to 500 nM in [3]; 500 to 1000 nM in experiment [11]; 100 to 500 nM in experiment [6]; 100 to 500 nM in experiment [13]. Also, the IC50 in [12] was in the range of 100 to 500 nM. Moreover, in experiment [9], the “Degradation … (substrate protein remaining %)” value is “A (A is defined as 0% ≤ substrate protein remaining % ≤ 80%)”. For the same compound, the inhibition at 0.5 µM in experiment [14] (at 0.5µM, read-out: Inhibition rate (%) at 0.5µM) is 30 to 40%. Besides, the inhibition at 2 µM in [14] (at 2 µM, read-out: Inhibition rate (%) at 2 µM) lay within 40 to 53%.
Consider `CC1(C)CCC(c2ccc(Cl)cc2)=C(CN2CCN(c3ccc(C(=O)NS(=O)(=O)c4ccc(N[C@H](CCN5CCN(Cc6cccc(N7CCC(=O)NC7=O)c6)CC5)CSc5ccccc5)c(S(=O)(=O)C(F)(F)F)c4)cc3)CC2)C1` [GT-04278, (R)-4-(4-((4'-chloro-4,4-dimethyl-3,4,5,6-tetrahydro-[1,1'-biphenyl]-2-yl)methyl)piperazin-1-yl)-N-((4-((4-(4-(3-(2,4-dioxotetrahydropyrimidin-1(2H)-yl)benzyl)piperazin-1-yl)-1-(phenylthio)butan-2-yl)amino)-3-((trifluoromethyl)sulfonyl)phenyl)sulfonyl)benzamide], for which the IC50 was in the range of 10 to 50 nM in experiment [1]; 100 to 500 nM in [2]; 1 to 10 nM in experiment [3]; 10 to 50 nM in experiment [4]; 10 to 50 nM in [5]; 100 to 500 nM in experiment [6]. Moreover, in experiment [7], the IC50 is 500 to 1000 nM.
For `CNC(=O)c1ccccc1Nc1cc(Nc2ccc(N3CCC(N(C)Cc4ccc(C5CCC(=O)NC5=O)c(F)c4)CC3)cc2OC)ncc1C(F)(F)F` (stereo not shown) [GT-03734, 2-((2-((4-(4-((4-(2,6-dioxopiperidin-3-yl)-3-fluorobenzyl)(methyl)amino)piperidin-1-yl)-2-methoxyphenyl)amino)-5-(trifluoromethyl)pyridin-4-yl)amino)-N-methylbenzamide], the IC50 is 50 to 100 nM in experiment [8]; 50 to 100 nM in experiment [10]; 100 to 500 nM in experiment [3]; 100 to 500 nM in experiment [6]; 100 to 500 nM in experiment [13]; 100 to 500 nM in experiment [12]. In addition, the “Degradation … (substrate protein remaining %)” value in [9] is “A (A is defined as 0% ≤ substrate protein remaining % ≤ 80%)”.
Regarding `CNC(=O)c1ccccc1Nc1cc(Nc2ccc(N3CCOCC3)cc2OC)ncc1C(F)(F)F` [PND-1186, reference compound], the IC50 in [10] fell in the range of 1000 to 5000 nM; in experiment [3], 1000 to 5000 nM; in experiment [5] it was 1000 to 5000 nM; in [11] it was 500 to 1000 nM; in experiment [13] it was 100 to 500 nM.
`CNC(=O)c1ccc(Nc2ncc(C(F)(F)F)c(NCc3nccnc3N(C)S(C)(=O)=O)n2)cc1` [Defactinib, reference compound]: the IC50 in experiment [8] is 500 to 1000 nM; in [10], 5000 to 10000 nM; in experiment [3], 1000 to 5000 nM; in experiment [5], 1000 to 5000 nM; in experiment [11], 1000 to 5000 nM; in experiment [6], 1000 to 5000 nM. The IC50 in [13] is 50 to 100 nM; in experiment [12] it was 1000 to 5000 nM.
